From paper PMC5641551, “Chemical Proteomics for Target Discovery of Head-to-Tail Cyclized Mini-Proteins” (Frontiers in Chemistry, 2017)

Assays:
[1] = tested on: Foxo3a transcriptional activity in HEK293 cells co-transfected with 14-3-3β; assay: Foxo3a luciferase reporter gene assay; assay type: cell-based, human; conditions: for Foxo3a transcriptional activity, effect in words: HEK293, luciferase reporter, PI3K inhibitors as controls, peptide 4 h
Protocol: Jurkat cells were cultured in RPMI medium containing phenol red supplemented with 10% (v/v) heat deactivated fetal calf serum and 100 U/mL penicillin/streptomycin at 37°C in humidified atmosphere of 5% CO2. HEK293 cells were cultured in Dulbecco's modified eagle high glucose medium supplied with 10% fetal calf serum and 100 U per mL penicillin/streptomycin. Cell transfection was carried out by Jetprime® according to the manufacturer's recommendation (Polyplus, Illkirch, France).
Forkhead box protein 3a induced transcriptional activity was measured on transiently transfected HEK293 cells (5 × 10^4). The reporter plasmid encoding luciferase under the control of a promotor containing forkhead responsive elements and the human p-Foxo3a-HA plasmid were gifts of Michael Greenberg provided by the Addgene consortium (#1787 and #1789; Brunet et al., [1999]). The plasmids encoding the mouse p-14-3-3 beta-GST protein and the functional forkhead transcription factor were used in a 1.5-fold amount compared to the reporter construct. The transfection was completed after 6 h and the cells could recover for 4 h in growth medium. The cells were serum starved using 1% (v/v) fetal bovine serum in phenol red free DMEM medium supplemented with antibiotics overnight. After 4 h peptide and 24 h of fusicoccin-A treatment the luciferase assay was developed using luciferase development kit from Promega E151 (Wisconsin, United States) and the luminescence was measured on a synergy H4 plate reader (Biotek). Control compounds were the PI3K inhibitors wortmannin and LY294002 (both Sigma Aldrich). The recorded data were normalized to the non-treated control sample. Significance and IC50-values were calculated from at least two biological replicates using GraphPad Prism. Data analysis was performed by non-linear regression using a four parameter Hill equation.
If not stated in detail for the respective single experiment the statistical tests were performed using GraphPad Prism 5.04 (GraphPad, La Jolla, CA) using one-way ANOVA with Bonferonni or Dunnett's Post-hoc test. The number of technical and biological repeats was justified by analysis of error and reproducibility of results. Significance threshold P < 0.05 was applied to all experiments. For the data shown in Figure 3 three individuals for the in vivo experiments were used and each data point was performed in three technical replicates. The pull down experiments shown in Figures 4A,B were performed a single time and the data represent two technical repeats. Gel lanes were loaded with single (1x) or doubled (2x) amount of pull down proteins for better visibility. The data illustrated in Figures 4C,D were performed in two independent experiments. Silver stained gel lanes were evaluated by loading various amounts, and then the amount with optimized staining contrast was loaded and used for in-gel protein digestion. The pull down experiments shown in Figures 4E,F were performed a single time. The Western Blots and the pull down experiment shown in Figure 5 represent experiments in three and two independent experiments, respectively. Experiments in a well-based format (Figure 6) were performed with three technical and two biological replicates. All data illustrated in this manuscript show the mean ± standard deviation (SD) unless stated otherwise. The MS based protein identifications were performed in two technical analyses for each sample.
Figure 6 Foxo3a luciferase reporter assay. The modulation of the Akt/PI3K/Foxo3a pathway by the cyclotide [T20K]kB1 binding to 14-3-3 proteins was investigated. HEK293 cells were transiently transfected with Foxo3a-Luc plasmid encoding luciferase under a promotor with Foxo response elements, Foxo3a and 14-3-3β. For control the reporter plasmid (basal value) was also co-transfected with the single functional effector proteins 14-3-3β or Foxo3a. Cells were treated under starving conditions with peptide or fusicoccin-A (FC-A) for 4 h or 24 h, respectively. […]

[2] = tested on: 14-3-3 proteins; conditions: cited from earlier work
Text: There are generally two types of 14-3-3 ligands: (i) inhibitors or (ii) stabilizers. […] In contrast, 14-3-3 stabilizers enforce a protein-protein interaction and they may account for an increased retention of 14-3-3 complexed proteins in the cytosol or other cellular compartments (Ottmann, [2013]; Bier et al., [2015]).

[3] = tested on: 14-3-3 proteins / 25 kDa protein band in murine splenocyte lysates; assay: photo-affinity pull down, splenocyte lysate, with competitors; assay type: binding, mouse; conditions: for competition effect for 14-3-3 proteins (order): competitors at 100-fold molar excess versus bait [T20K,W23Bpa]kB1, in-gel digestion and proteomics
Protocol: (§1) Splenocytes or Jurkat cells were lysed with 25 mM Tris-HCl pH 7.4, 40 mM KCl, 2.5 mM MgSO4 2.5 mM CaCl2, 2% (v/v) glycerol, 1 mM EDTA under repeated freeze-thaw cycles and 10 min sonification. All experiments were performed in buffer with 1x complete protease inhibitor cocktail (Hoffman-La Roche, Basel, Switzerland). Cell membranes and debris were pelleted for 30 min at 16,000 × g and the supernatant corresponds to the “soluble cell lysate.” Protein concentration was determined using a bicinchoninic acid assay kit (Thermo Scientific) and DTT (1 mM) was added to keep redox potential constant during binding experiments. Photo-affinity pull down samples were submitted to denaturing sodium dodecyl sulfate polyacrylamide gel electrophoresis (PAGE). For immunoblotting according to earlier published protocols (Gruber et al., [2007]; Bergmayr et al., [2013]) proteins were semi-dry transferred onto a nitrocellulose membrane 0.45 μM (Amersham Protran, GE Healthcare, Austria) using a Fast Semi-dry blotter (Bio-Rad) at 0.25 mA per gel for 1 h. Primary rabbit anti-GFP antibody (1:5,000) was from Invitrogen (A6455), rabbit anti-GST antibody (1:2,500) from Abcam (ab9085), and mouse anti-human calcineurin subunit A antibody (1:2,000) clone BE2.1 from eBioscience. Secondary ECL anti-mouse (NA931V) or ECL anti-rabbit (NA934VS) IgG antibodies (1:10,000) were conjugated with horse radish peroxidase (GE Healthcare). Chemo-luminescence signals were detected on an imaging system FluorChem HD2 (Alpha Innotech, CA, United States). For silver staining protein gels were treated immediately after electrophoresis with fixing solution EtOH/ddH2O/acetic acid 50/40/10% (v/v/v) for 20 min. Gels had to be washed acid free, first with 50% (v/v) EtOH for 10 min and with ddH2O for 2 h. Gels were exposed to sensitization buffer 0.025% Na2S2O3 in ddH2O for 3 min, followed by 2 min wash with ddH2O. Gels were silver loaded using a 0.15% AgNO3 solution for 45 min in the dark. The protein bands were stained in development buffer formaldehyde/Na2CO3 0.04/2% (v/w) under rigorous shaking. The reaction was quenched with 5% (v/v) acetic acid solution and the gels were stored until further processing in the stopping buffer at 4°C. Pixel quantification was carried out using ImageJ v1.47 (National Institute for Health).
(§2) Biotin-LC-LC-labeled (ThermoFisher) peptides (1–5 nmoles) with or without (non-biotinylated) competitor (20–100-fold molar excess) were incubated with Jurkat cell or murine splenocyte cell lysates (150–500 μg proteins) for 2 h at 4°C in the presence of protease inhibitors. UV-activation of photo-crosslinking moiety benzophenone was induced by irradiation at 360 nm on ice for 15 min (Stratalinker, Stratagene, CA, United States). […]

[4] = tested on: GST-tagged 14-3-3β; assay: co-precipitation of GST-tagged 14-3-3β with cyclotide probe and competitors; assay type: binding; conditions: immunoblot and far Western blot; 2 h at 4°C; competitors 150–500-fold molar excess
Protocol: as §1
as §2, with “([…])” for “(non-biotinylated) competitor (20–100-fold molar excess)”

[5] = tested on: myelin oligodendrocyte glycoprotein (MOG)-immunized mouse splenocytes; assay: anti-proliferation assay of MOG-restimulated splenocytes from 2D2 mice; assay type: cell-based; conditions: summary in words; [T20K,W23Bpa]kB1 versus [T20K]kB1, 4 μM
Protocol: Biological integrity of probes was determined using their reported immunosuppressive activity (Grundemann et al., [2013]; Thell et al., [2016]). Briefly, activity was measured in isolated lymphocytes derived from self-donated human venous blood or mouse splenocytes derived from 2D2 myelin oligodendrocyte glycoprotein specific T-cell receptor transgenic mice on a C57Bl/6 background [C57Bl/6-Tg(Tcra2D2,Tcrb2D2) Kuch/J]. These mice develop spontaneous experimental autoimmune encephalomyelitis, a mouse model of multiple sclerosis. Bioactivity was assessed by T-cell proliferation using FACS or cytokine concentration analysis of interleukin-2 in the supernatant of ex vivo re-stimulated splenocytes for 72 h using an ELISA kit and antibodies from eBioscience® (Grundemann et al., [2013]; Thell et al., [2016]). All experiments were approved according to the European Community rules of animal care with the permission of the Austrian Ministry of Science (BMWF-66.009/0241-II/3B/2011).
If not stated in detail for the respective single experiment the statistical tests were performed using GraphPad Prism 5.04 (GraphPad, La Jolla, CA) using one-way ANOVA with Bonferonni or Dunnett's Post-hoc test. […] Silver stained gel lanes were evaluated by loading various amounts, and then the amount with optimized staining contrast was loaded and used for in-gel protein digestion. […]

Compound | Foxo3a transcriptional activity, effect in words [1] | competition effect for 14-3-3 proteins (order) [3] | binding of probe [T20K,W23Bpa]kB1 to 14-3-3β in presence of competitor [4] | also measured
O=c1cc(N2CCOCC2)oc2c(-c3ccccc3)cccc12 [LY294002, reference compound] | increased transcriptional activity | – | – | –
C=CC(C)(C)OC[C@H]1O[C@H](O[C@@H]2C3=C([C@H](C)COC(C)=O)C[C@H](O)[C@]3(C)/C=C3/[C@@H](COC)CC[C@H]3[C@@H](C)[C@H]2O)[C@H](O)[C@@H](OC(C)=O)[C@@H]1O [fusicoccin-A, reference compound] | – | – | – | effect as 14-3-3 stabilizer ([2]; ref Skwarczynska et al., 2013, Bier et al., 2015, Milroy et al.): enforce protein complex formation of 14-3-3s with transcription factors; IC50 ([1]; HEK293 transfected with Foxo3a-Luc, Foxo3a and 14-3-3β, fusicoccin-A treatment 24 h, IC50 ± SD, two independent experiments, four parameter Hill fit, read-out: IC50, reduction of luciferase signal): 39.1 ± 2.34 µM
NC(=O)c1ncn([C@@H]2O[C@H](CO)[C@@H](O)[C@H]2O)c1O [mizoribine] | – | – | – | modulation of 14-3-3 protein function ([2]; ref Kawasaki, 2009): modulate 14-3-3 protein function
COC[C@H]1OC(=O)c2coc3c2[C@@]1(C)C1=C(C3=O)[C@@H]2CCC(=O)[C@@]2(C)C[C@H]1OC(C)=O [wortmannin, reference compound] | increased transcriptional activity | – | – | –
CGETCVGGTCNTPGCKCSXPVCTRNGLPV (bicyclic or more) [[T20K,W23Bpa]kB1] | – | competition effect in the order [T20K]kB1 < [T20K,W23Bpa]kB1 < R18 | significantly altered | biological activity of probe [5]: retained biological activity
PHCVPRDLSWLDLEANMCLP [R18, reference compound] | – | competition effect in the order [T20K]kB1 < [T20K,W23Bpa]kB1 < R18 | significantly altered | effect as 14-3-3 inhibitor on Foxo3a ([2]; ref Arrendale et al., 2012): increase Foxo3a nuclear import to induce pro-apoptotic transcriptional activity; effect on intensity of protein bands ([3]; competitor at 100-fold molar excess, silver stained gel): did not alter the intensity of protein bands throughout the sample
